Results as given in PubChem BioAssay (NCI).
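Abbreviation: GI50, concentration required for 50% inhibition of growth. At the TGI there is no net growth.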

Assays:
Assay in all cases: growth of human tumour cells (NCI), 384-well format
SW-620 colon = system: SW-620 colon
786-0 renal = system: 786-0 renal
A549 NSCLC = system: A549 NSCLC
ACHN renal = system: ACHN renal
SK-MEL-5 melanoma = system: SK-MEL-5 melanoma
SNB-19 CNS = system: SNB-19 CNS
LOX IMVI melanoma = system: LOX IMVI melanoma
UACC-62 melanoma = system: UACC-62 melanoma
HCC-2998 colon = system: HCC-2998 colon
HOP-92 NSCLC = system: HOP-92 NSCLC
MDA-MB-231 breast = system: MDA-MB-231 breast
CAKI-1 renal = system: CAKI-1 renal
OVCAR-5 ovarian = system: OVCAR-5 ovarian
NCI/ADR-RES ovarian = system: NCI/ADR-RES ovarian
SF-539 CNS = system: SF-539 CNS
RXF 393 renal = system: RXF 393 renal
SNB-75 CNS = system: SNB-75 CNS
SF-295 CNS = system: SF-295 CNS
KM12 colon = system: KM12 colon
NCI-H322M lung = system: NCI-H322M lung
BT-549 breast = system: BT-549 breast
MALME-3M melanoma = system: MALME-3M melanoma
OVCAR-8 ovarian = system: OVCAR-8 ovarian
PC-3 prostate = system: PC-3 prostate
NCI-H23 lung = system: NCI-H23 lung
SK-OV-3 ovarian = system: SK-OV-3 ovarian
T-47D breast = system: T-47D breast
MOLT-4 leukemia = system: MOLT-4 leukemia
TK-10 renal = system: TK-10 renal
K-562 leukemia = system: K-562 leukemia
MDA-MB-435 melanoma = system: MDA-MB-435 melanoma
RPMI-8226 leukemia = system: RPMI-8226 leukemia
NCI-H226 lung = system: NCI-H226 lung
HCT-15 colon = system: HCT-15 colon
EKVX NSCLC = system: EKVX NSCLC
OVCAR-3 ovarian = system: OVCAR-3 ovarian
HS 578T breast = system: HS 578T breast
DU-145 prostate = system: DU-145 prostate
SR leukemia = system: SR leukemia
NCI-H522 lung = system: NCI-H522 lung
MDA-MB-468 breast = system: MDA-MB-468 breast
A498 renal = system: A498 renal
SF-268 CNS = system: SF-268 CNS
MCF7 breast = system: MCF7 breast
HOP-62 NSCLC = system: HOP-62 NSCLC
SK-MEL-28 melanoma = system: SK-MEL-28 melanoma
NCI-H460 NSCLC = system: NCI-H460 NSCLC
CCRF-CEM leukemia = system: CCRF-CEM leukemia
M14 melanoma = system: M14 melanoma
COLO 205 colon = system: COLO 205 colon
UACC-257 melanoma = system: UACC-257 melanoma
HT29 colon = system: HT29 colon
UO-31 renal = system: UO-31 renal
OVCAR-4 ovarian = system: OVCAR-4 ovarian
IGROV1 ovarian = system: IGROV1 ovarian
HL-60(TB) leukemia = system: HL-60(TB) leukemia

## Cn1c(=O)n(-c2ccc(C(C)(C)C#N)cc2)c2c3cc(-c4cnc5ccccc5c4)ccc3ncc21
SW-620 colon
  GI50: 28.2 nM
  TGI: > 100000 nM
786-0 renal
  GI50: < 10 nM
  TGI: 1190 nM
A549 NSCLC
  GI50: < 10 nM
  TGI: 1330 nM
ACHN renal
  GI50: < 10 nM
  TGI: > 100000 nM
SK-MEL-5 melanoma
  GI50: 12.7 nM
  TGI: 41.1 nM
SNB-19 CNS
  GI50: 40.8 nM
  TGI: > 100000 nM
LOX IMVI melanoma
  GI50: < 10 nM
  TGI: 69.8 nM
UACC-62 melanoma
  GI50: < 10 nM
  TGI: 101 nM
HCC-2998 colon
  GI50: < 10 nM
  TGI: 480 nM
HOP-92 NSCLC
  GI50: < 10 nM
  TGI: 64.2 nM
MDA-MB-231 breast
  GI50: < 10 nM
  TGI: > 100000 nM
CAKI-1 renal
  GI50: 12.7 nM
  TGI: > 100000 nM
OVCAR-5 ovarian
  GI50: 13.3 nM
  TGI: 298 nM
NCI/ADR-RES ovarian
  GI50: 29.7 nM
  TGI: 8070 nM
SF-539 CNS
  GI50: < 10 nM
  TGI: 707 nM
RXF 393 renal
  GI50: < 10 nM
  TGI: > 100000 nM
SNB-75 CNS
  GI50: < 10 nM
  TGI: 80.9 nM
SF-295 CNS
  GI50: < 10 nM
  TGI: 31.5 nM
KM12 colon
  GI50: 13.5 nM
  TGI: 1290 nM
NCI-H322M lung
  GI50: 12.1 nM
  TGI: 2560 nM
BT-549 breast
  GI50: < 10 nM
  TGI: 62.8 nM
MALME-3M melanoma
  GI50: < 10 nM
  TGI: 23 nM
OVCAR-8 ovarian
  GI50: < 10 nM
  TGI: > 100000 nM
PC-3 prostate
  GI50: < 10 nM
  TGI: 2110 nM
NCI-H23 lung
  GI50: 34.5 nM
  TGI: 723 nM
SK-OV-3 ovarian
  GI50: < 10 nM
  TGI: 60.2 nM
T-47D breast
  GI50: < 10 nM
  TGI: 19.7 nM
MOLT-4 leukemia
  GI50: < 10 nM
  TGI: 86 nM
TK-10 renal
  GI50: 23.9 nM
  TGI: 126 nM
K-562 leukemia
  GI50: 13.9 nM
  TGI: 12800 nM
MDA-MB-435 melanoma
  GI50: 17.6 nM
  TGI: 492 nM
RPMI-8226 leukemia
  GI50: < 10 nM
NCI-H226 lung
  GI50: < 10 nM
  TGI: 62.3 nM
HCT-15 colon
  GI50: < 10 nM
  TGI: > 100000 nM
EKVX NSCLC
  GI50: < 10 nM
  TGI: 85.1 nM
OVCAR-3 ovarian
  GI50: 12.3 nM
  TGI: 1700 nM
HS 578T breast
  GI50: < 10 nM
  TGI: 19.8 nM
DU-145 prostate
  GI50: < 10 nM
  TGI: > 100000 nM
SR leukemia
  GI50: < 10 nM
  TGI: 17.2 nM
NCI-H522 lung
  GI50: 10.4 nM
  TGI: 237 nM
MDA-MB-468 breast
  GI50: < 10 nM
  TGI: 30.4 nM
A498 renal
  GI50: < 10 nM
  TGI: 16.8 nM
SF-268 CNS
  GI50: 19.4 nM
  TGI: 3360 nM
MCF7 breast
  GI50: < 10 nM
  TGI: 185 nM
HOP-62 NSCLC
  GI50: < 10 nM
  TGI: 191 nM
SK-MEL-28 melanoma
  GI50: 13.5 nM
  TGI: 95 nM
NCI-H460 NSCLC
  GI50: < 10 nM
  TGI: 532 nM
CCRF-CEM leukemia
  GI50: < 10 nM
  TGI: 103 nM
M14 melanoma
  GI50: 13.6 nM
  TGI: 599 nM
COLO 205 colon
  GI50: 21.5 nM
  TGI: 262 nM
UACC-257 melanoma
  GI50: 21.4 nM
  TGI: 93.7 nM
HT29 colon
  GI50: 29.5 nM
  TGI: > 100000 nM
UO-31 renal
  GI50: 19.6 nM
  TGI: > 100000 nM
OVCAR-4 ovarian
  GI50: < 10 nM
  TGI: 27.2 nM
IGROV1 ovarian
  GI50: < 10 nM
  TGI: 28.6 nM
HL-60(TB) leukemia
  GI50: 104 nM
  TGI: 1110 nM
